By pIC50 is commonly meant −log10 of the IC50, conventionally taken in molar units.

The structures appear in SMILES notation. pIC50: −log10 of the molar value.

The test system of this assay is Mo7e cells which endogenously express c-kit. Nature of the assay: Mo7e assay: inhibition of SCF dependent proliferation (MTT). The settings on record: Table 1; SCF stimulated Mo7e cells, 48 hours, MTT. It is filed as cell-based. A digest of the protocol: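 Mo7e cells stimulated with human recombinant SCF and exposed to two-fold serial compound dilutions from a top concentration of 10 μM. After 48 h at 37 °C, viability measured by MTT colorimetric assay; IC50 derived.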
With `Cc1cc2c(cn1)cc(-c1cc(Nc3noc(-c4cccnc4F)n3)ccc1C)c(=O)n2C` [Compound A91, 3-(5-{[5-(2-fluoropyridin-3-yl)-1,2,4-oxadiazol-3-yl]amino}-2-methylphenyl)-1,7-dimethyl-1,2-dihydro-1,6-naphthyridin-2-one], the pIC50 was 6.61.
With `CC(=O)c1ccccc1-c1nc(Nc2ccc(C)c(-c3cc4cnc(C)cc4n(C)c3=O)c2)no1` [Compound A94, 3-(5-{[5-(2-acetylphenyl)-1,2,4-oxadiazol-3-yl]amino}-2-methylphenyl)-1,7-dimethyl-1,2-dihydro-1,6-naphthyridin-2-one] the figure was 6.59; with `CC(=O)c1ccc(-c2nc(Nc3ccc(C)c(-c4cc5cnc(C)cc5n(C)c4=O)c3)no2)cc1` [Compound A95, 3-(5-{[5-(4-acetylphenyl)-1,2,4-oxadiazol-3-yl]amino}-2-methylphenyl)-1,7-dimethyl-1,2-dihydro-1,6-naphthyridin-2-one], 6.51; with `Cc1cc2c(cn1)cc(-c1cc(Nc3noc(C(C)Oc4ccccc4)n3)ccc1C)c(=O)n2C` (centres unmarked) [Compound A96, 1,7-dimethyl-3-(2-methyl-5-{[5-(1-phenoxyethyl)-1,2,4-oxadiazol-3-yl]amino}phenyl)-1,2-dihydro-1,6-naphthyridin-2-one], 6.38.
With `Cc1cc2c(cn1)cc(-c1cc(Nc3noc([C@@]4(C)CCCO4)n3)ccc1C)c(=O)n2C` [Compound A97, 1,7-dimethyl-3-[2-methyl-5-({5-[(2R)-2-methyloxolan-2-yl]-1,2,4-oxadiazol-3-yl}amino)phenyl]-1,2-dihydro-1,6-naphthyridin-2-one], the pIC50 is 6.80.
With `Cc1cc2c(cn1)cc(-c1cc(Nc3noc(C4Cc5ccccc5O4)n3)ccc1C)c(=O)n2C` (centres unmarked) [Compound A98, 3-(5-{[5-(2,3-dihydro-1-benzofuran-2-yl)-1,2,4-oxadiazol-3-yl]amino}-2-methylphenyl)-1,7-dimethyl-1,2-dihydro-1,6-naphthyridin-2-one], the pIC50 is 6.41.
With `Cc1cc2c(cn1)cc(-c1cc(Nc3noc([C@H]4CCCCO4)n3)ccc1C)c(=O)n2C` [Compound A99, 1,7-dimethyl-3-[2-methyl-5-({5-[(2R)-oxan-2-yl]-1,2,4-oxadiazol-3-yl}amino)phenyl]-1,2-dihydro-1,6-naphthyridin-2-one], the pIC50 was 7.00.
`Cc1cc2c(cn1)cc(-c1cc(Nc3noc([C@@H]4CCCCO4)n3)ccc1C)c(=O)n2C` [Compound A100, 1,7-dimethyl-3-[2-methyl-5-({5-[(2S)-oxan-2-yl]-1,2,4-oxadiazol-3-yl}amino)phenyl]-1,2-dihydro-1,6-naphthyridin-2-one]: the pIC50 was 7.15.
Compound `Cc1cc2c(cn1)cc(-c1cc(Nc3noc([C@H]4C[C@@](C)(O)C4)n3)ccc1C)c(=O)n2C` [Compound A101, 3-(5-{[5-(3-hydroxy-3-methylcyclobutyl)-1,2,4-oxadiazol-3-yl]amino}-2-methylphenyl)-1,7-dimethyl-1,2-dihydro-1,6-naphthyridin-2-one] showed a pIC50 of 6.69.
With `Cc1ccc(-c2nc(Nc3ccc(C)c(-c4cc5cnc(C)cc5n(C)c4=O)c3)no2)nc1` [Compound A102, 1,7-dimethyl-3-(2-methyl-5-{[5-(5-methylpyridin-2-yl)-1,2,4-oxadiazol-3-yl]amino}phenyl)-1,2-dihydro-1,6-naphthyridin-2-one], the negative logarithm of the IC50 (pIC50) was 6.95.
In turn, `COc1ccc(-c2nc(Nc3ccc(C)c(-c4cc5cnc(C)cc5n(C)c4=O)c3)no2)nc1` [Compound A103, 3-(5-{[5-(5-methoxypyridin-2-yl)-1,2,4-oxadiazol-3-yl]amino}-2-methylphenyl)-1,7-dimethyl-1,2-dihydro-1,6-naphthyridin-2-one] gave a pIC50 of 7.09.
Take `CCc1cc2c(cn1)cc(-c1cc(Nc3noc(C(C)C)n3)ccc1C)c(=O)n2C` [Compound A104, 7-ethyl-3-(5-(5-isopropyl-1,2,4-oxadiazol-3-ylamino)-2-methylphenyl)-1-methyl-1,6-naphthyridin-2(1H)-one]: the pIC50 is 7.06.
Compound `CCc1cc2c(cn1)cc(-c1cc(Nc3noc(-c4ccccn4)n3)ccc1C)c(=O)n2C` [Compound A105, 7-ethyl-1-methyl-3-(2-methyl-5-(5-(pyridin-2-yl)-1,2,4-oxadiazol-3-ylamino)phenyl)-1,6-naphthyridin-2(1H)-one] showed a pIC50 of 6.55.
On to `COc1ccc(-c2nnc(Nc3ccc(C)c(-c4cc5cnc(C)cc5n(C)c4=O)c3)o2)cc1` [Compound B2, 3-(5-{[5-(4-methoxyphenyl)-1,3,4-oxadiazol-2-yl]amino}-2-methylphenyl)-1,7-dimethyl-1,2-dihydro-1,6-naphthyridin-2-one], for which the pIC50 is 7.07.
`Cc1cc2c(cn1)cc(-c1cc(Nc3nnc(-c4ccc(Cl)cc4)o3)ccc1C)c(=O)n2C` [Compound B3, 3-(5-{[5-(4-chlorophenyl)-1,3,4-oxadiazol-2-yl]amino}-2-methylphenyl)-1,7-dimethyl-1,2-dihydro-1,6-naphthyridin-2-one] gave a pIC50 of 7.06.
With `Cc1cc2c(cn1)cc(-c1cc(Nc3nnc(-c4ccccc4)o3)ccc1C)c(=O)n2C` [Compound B4, 1,7-dimethyl-3-(2-methyl-5-(5-phenyl-1,3,4-oxadiazol-2-ylamino)phenyl)-1,6-naphthyridin-2(1H)-one] the figure was 6.98; with `Cc1cc2c(cn1)cc(-c1cc(Nc3nnc(CC(C)C)o3)ccc1C)c(=O)n2C` [Compound B5, 3-(5-(5-isobutyl-1,3,4-oxadiazol-2-ylamino)-2-methylphenyl)-1,7-dimethyl-1,6-naphthyridin-2(1H)-one], 6.97; with `Cc1cc2c(cn1)cc(-c1cc(Nc3nnc(-c4ccc(F)cc4)o3)ccc1C)c(=O)n2C` [Compound B6, 3-(5-{[5-(4-fluorophenyl)-1,3,4-oxadiazol-2-yl]amino}-2-methylphenyl)-1,7-dimethyl-1,2-dihydro-1,6-naphthyridin-2-one], 6.92.
Compound `Cc1cc2c(cn1)cc(-c1cc(Nc3nnc(C(C)C)o3)ccc1C)c(=O)n2C` [Compound B7, 1,7-dimethyl-3-(2-methyl-5-{[5-(propan-2-yl)-1,3,4-oxadiazol-2-yl]amino}phenyl)-1,2-dihydro-1,6-naphthyridin-2-one] had a pIC50 of 6.79.
Consider `Cc1cc2c(cn1)cc(-c1cc(Nc3nnc(C(C)(C)C)o3)ccc1C)c(=O)n2C` [Compound B8, 3-{5-[(5-tert-butyl-1,3,4-oxadiazol-2-yl)amino]-2-methylphenyl}-1,7-dimethyl-1,2-dihydro-1,6-naphthyridin-2-one], for which the pIC50 was 6.68.
As for `Cc1cc2c(cn1)cc(-c1cc(Nc3nnc(C4CC4)o3)ccc1C)c(=O)n2C` [Compound B9, 3-{5-[(5-cyclopropyl-1,3,4-oxadiazol-2-yl)amino]-2-methylphenyl}-1,7-dimethyl-1,2-dihydro-1,6-naphthyridin-2-one], the pIC50 is 6.48.
With `Cc1cc2c(cn1)cc(-c1cc(Nc3nnc(C4CCCCC4)o3)ccc1C)c(=O)n2C` [Compound B10, 3-{5-[(5-cyclohexyl-1,3,4-oxadiazol-2-yl)amino]-2-methylphenyl}-1,7-dimethyl-1,2-dihydro-1,6-naphthyridin-2-one] the figure was 6.42; with `Cc1cc2c(cn1)cc(-c1cc(Nc3nnc(C4CCCC4)[nH]3)ccc1C)c(=O)n2C` [Compound C1, 3-(5-(5-cyclopentyl-4H-1,2,4-triazol-3-ylamino)-2-methylphenyl)-1,7-dimethyl-1,6-naphthyridin-2(1H)-one], 6.92.
Consider `Cc1cc2c(cn1)cc(-c1cc(Nc3nnc(-c4ccc(Cl)cc4)[nH]3)ccc1C)c(=O)n2C` [Compound C2, 3-(5-{[5-(4-chlorophenyl)-4H-1,2,4-triazol-3-yl]amino}-2-methylphenyl)-1,7-dimethyl-1,2-dihydro-1,6-naphthyridin-2-one], for which the pIC50 was 6.59.
For the compound `Cc1cc2c(cn1)cc(-c1cc(Nc3nnc(C4CCCCC4)[nH]3)ccc1C)c(=O)n2C` [Compound C3, 3-{5-[(5-cyclohexyl-4H-1,2,4-triazol-3-yl)amino]-2-methylphenyl}-1,7-dimethyl-1,2-dihydro-1,6-naphthyridin-2-one], the pIC50 was 6.55.
`Cc1ccc(-c2nnc(Nc3ccc(C)c(-c4cc5cnc(C)cc5n(C)c4=O)c3)[nH]2)cc1` [Compound C4, 1,7-dimethyl-3-(2-methyl-5-{[5-(4-methylphenyl)-4H-1,2,4-triazol-3-yl]amino}phenyl)-1,2-dihydro-1,6-naphthyridin-2-one] gave a pIC50 of 6.54.
Under `Cc1cc2c(cn1)cc(-c1cc(Nc3nnc(CC(C)(C)C)[nH]3)ccc1C)c(=O)n2C` [Compound C5, 3-(5-{[5-(2,2-dimethylpropyl)-4H-1,2,4-triazol-3-yl]amino}-2-methylphenyl)-1,7-dimethyl-1,2-dihydro-1,6-naphthyridin-2-one] stands 6.49; under `Cc1cc2c(cn1)cc(-c1cc(Nc3nnc(-c4cccc(Cl)c4)[nH]3)ccc1C)c(=O)n2C` [Compound C7, 3-(5-{[5-(3-chlorophenyl)-4H-1,2,4-triazol-3-yl]amino}-2-methylphenyl)-1,7-dimethyl-1,2-dihydro-1,6-naphthyridin-2-one], 6.42.
`Cc1cc2c(cn1)cc(-c1cc(Nc3nnc(C4CCC4)[nH]3)ccc1C)c(=O)n2C` [Compound C8, 3-{5-[(5-cyclobutyl-4H-1,2,4-triazol-3-yl)amino]-2-methylphenyl}-1,7-dimethyl-1,2-dihydro-1,6-naphthyridin-2-one] showed a pIC50 of 6.36.
`Cc1cc2c(cn1)cc(-c1cc(Nc3cc(-c4ccccc4)on3)ccc1C)c(=O)n2C` [Compound D1, 1,7-dimethyl-3-(2-methyl-5-(5-phenylisoxazol-3-ylamino)phenyl)-1,6-naphthyridin-2(1H)-one] gave a pIC50 of 7.17.
`Cc1cc2c(cn1)cc(-c1cc(Nc3cc(-c4ccc(OC(F)(F)F)cc4)on3)ccc1C)c(=O)n2C` [Compound D2] gave a pIC50 of 6.37.
The compound `Cc1cc2c(cn1)cc(-c1cc(Nc3cc(-c4ccccn4)on3)ccc1C)c(=O)n2C` [Compound D3] showed a pIC50 of 6.80.

The values above are taken from patent US8278452B2, “Heterocyclic compounds and compositions as c-kit and PDGFR kinase inhibitors” (IRM LLC, priority 2008, dated 2012).
